# Read-outs that look alike come from different tables or passages of the source.
# Key:
# [1] = system: Emit II Plus Monoclonal; details: cited from earlier work
# [2] = system: Cedia DAU; details: cited from earlier work
# [3] = system: antiserum raised to immunogen 7 (IgG fraction); experiment: MDMA competitive ELISA (microtiter plate); assay type: binding, sheep; details: for IC50 / % CR (cross-reactivity = IC50MDMA/IC50CR x 100): Hapten 7-HRP; for % CR (cross-reactivity = IC50MDMA/IC50CR x 100): relative to MDMA 100; for level of cross-reactivity of the MDMA assays (in words): summary of Table 2
# Procedure: An aqueous solution of the immunogen prepared in Example 8 was formulated with Freund's Complete Adjuvant (FCA) to form an emulsion consisting of 2 mg/ml immunogen in 50% (v/v) FCA. Two sheep were immunised with this emulsion, 0.25 ml being subcutaneously injected at each of 4 sites in the flank of each animal. Subsequent immunisations (boosts) contained 1 mg/ml immunogen emulsified in 50% (v/v) Freund's Incomplete Adjuvant (FIA) and were administered in the same manner at monthly intervals for 1 year. Blood sampling took place 7 to 14 days after each boost. Each sample was processed to produce antiserum that was further purified by caprylic acid and ammonium sulfate precipitation to yield an immunoglobulin G (IgG) fraction. The IgG fraction was evaluated by competitive microtiter plate assay, as described below.
# The wells of an enhanced binding 96 well polystyrene microtiter plate were coated with the IgG fraction of the antiserum raised to Immunogen 7 (Example 8), diluted in 10 mM Tris, pH8.5 (125 μl/well). The appropriate antibody coating dilution was determined using standard ELISA chequerboard techniques. The plate was incubated for 2 hours at 37° C., washed 4 times with Tris buffered saline containing Tween 20 (TBST) and tapped dry. Standard solutions of MDMA were prepared in TBST at 0, 1, 10, 50, 100, 250, 500 and 1000 ng/ml and 25 μl of each was added to the appropriate wells (FIG. 2). Conjugates (detection reagents)-hapten 7-HRP (Example 9) and hapten 10-HRP (Example 12)—were diluted in Tris buffer, pH7.2, containing EDTA, D-mannitol, sucrose, thimerosal and BSA, appropriate dilutions being determined by standard ELISA chequerboard techniques, and 100 μl of each was added to the appropriate wells (FIG. 2). The plate was incubated at 37° C. for 2 hours. Excess unbound conjugate was removed by washing 6 times over a 10 minute period with TBST.
# 125 μl of tetramethylbenzidine (TMB) substrate solution was added to each well of the plate which was then incubated for 15 to 20 minutes in the dark at room temperature. The reaction was terminated by addition of 125 μl 0.2 M H2SO4 to each well. The absorbance was then measured at 450 nm using a microtiter plate reader.
# In order to determine the specificity of the MDMA competitive ELISAs, standard solutions of potential cross-reactants MDEA, MDA, d-amphetamine, (+)-methamphetamine, (+)-ephedrine, (−)-ephedrine, (+)-pseudoephedrine, (−)-pseudoephedrine and 1-amphetamine were prepared in TBST at 0, 500, 1000, 5000, 10000, 25000, 50000 and 100000 ng/ml. Employing each series of standards in the MDMA competitive ELISAs, calibration curves were generated and these were used to determine the cross-reactivity of the immunoassays with these drugs. The results of this study are presented in Table 2, cross-reactivity being calculated according to the following formula: % CR=IC50MDMA/IC50CR×100
# Where % CR is the percentage cross-reactivity, IC50MDMA is the concentration of MDMA that causes 50% displacement of signal and IC50CR is the concentration of potential cross-reactant, for which % CR is being evaluated, that causes 50% displacement of signal.
# [4] = system: Cozart MDMA EIA; details: cited from earlier work; for cross-reactivity, Cozart MDMA EIA: compared to 100% for MDMA; for cross-reactivity, Cozart MDMA: recalculated relative to 100% for MDMA
# [5] = system: Cozart Methamphetamine and MDMA; details: cited from earlier work; for cross-reactivity, Cozart Methamphetamine and MDMA: recalculated relative to 100% for MDMA
# [6] = system: Cozart methamphetamine EIA; details: cited from earlier work; for cross-reactivity, Cozart Methamphetamine: recalculated relative to 100% for MDMA; for cross-reactivity, Cozart methamphetamine EIA: compared to 100% for methamphetamine
# [7] = system: Cozart Amphetamine; details: recalculated relative to 100% for MDMA; cited from earlier work
# [8] = in vivo; cited from earlier work
# [9] = recalculated relative to 100% for MDMA
compound,measurement,setting,value
C[C@@H](N)Cc1ccccc1 [L-Amphetamine],"cross-reactivity, Emit",[1]; [9],120.13%
same,"cross-reactivity, CEDIA",[2]; [9],4.35%
same,IC50,[3]; Trial 2,>30 µg/mL
same,% CR (cross-reactivity = IC50MDMA/IC50CR x 100),[3]; Trial 2,<0.1%
CN[C@@H](C)Cc1ccccc1 [D-Methamphetamine],"cross-reactivity, Cozart MDMA EIA",[4],52–80%
same,"cross-reactivity, Cozart MDMA",[4],52–80%
same,"cross-reactivity, Cozart Methamphetamine and MDMA",[5],217%
same,"cross-reactivity, Cozart Methamphetamine",[6],10%
same,"cross-reactivity, CEDIA",[2]; [9],145%
same,IC50,[3]; Trial 1,11.138 µg/mL
same,% CR (cross-reactivity = IC50MDMA/IC50CR x 100),[3]; Trial 1,0.15%
same,level of cross-reactivity of the MDMA assays (in words),[3],very low levels of cross-reactivity
"CN[C@@H](C)Cc1ccccc1 (racemic) [D,L-Methamphetamine]","cross-reactivity, Emit",[1]; [9],699.7%
same,"cross-reactivity, CEDIA",[2]; [9],94.25%
CN[C@H](C)[C@@H](O)c1ccccc1 [(+)-Ephedrine],IC50,[3]; Trial 1,>100 µg/mL
same,% CR (cross-reactivity = IC50MDMA/IC50CR x 100),[3]; Trial 1,<0.017%
(+)-Pseudoephedrine,IC50,[3]; Trial 1,>100 µg/mL
same,% CR (cross-reactivity = IC50MDMA/IC50CR x 100),[3]; Trial 1,<0.017%
CN[C@H](C)Cc1ccccc1 [L-Methamphetamine],"cross-reactivity, Cozart MDMA",[4],4–22%
same,"cross-reactivity, Emit",[1]; [9],378.7%
same,"cross-reactivity, CEDIA",[2]; [9],17.4%
"CCNC(C)Cc1ccc2c(c1)OCO2 (centres unmarked) [MDEA, 3,4-methylenedioxyethylamphetamine]","cross-reactivity, Cozart Amphetamine",[7],228.5%
same,"cross-reactivity, Cozart MDMA",[4],7.0–13.0%
same,"cross-reactivity, Cozart Methamphetamine and MDMA",[5],10.85%
same,"cross-reactivity, Cozart methamphetamine EIA",[6],50–100%
same,"cross-reactivity, Cozart Methamphetamine",[6],5–10%
same,IC50,[3]; Trial 2,0.015 µg/mL
same,% CR (cross-reactivity = IC50MDMA/IC50CR x 100),[3]; Trial 2,200%
same,level of cross-reactivity of the MDMA assays (in words),[3],high levels of cross-reactivity
"CNC(C)Cc1ccc2c(c1)OCO2 (centres unmarked) [MDMA, 3,4-methylenedioxymethamphetamine]","cross-reactivity, Cozart Amphetamine",[7],100%
same,"cross-reactivity, Cozart MDMA",[4],100%
same,excreted unchanged in urine,[8],65%
same,"cross-reactivity, single Cozart methamphetamine kit",[5]; compared to 100% for methamphetamine,43–49%
same,"cross-reactivity, Cozart Methamphetamine and MDMA",[5],100%
same,"cross-reactivity, Emit","[1]; compared to 100% for D,L-methamphetamine",14.3%
same,"cross-reactivity, Emit",[1]; [9],100%
same,"cross-reactivity, Cozart methamphetamine EIA",[6],758–1250%
same,"cross-reactivity, Cozart Methamphetamine",[6],100%
same,"cross-reactivity, CEDIA",[2]; compared to 100% for D-methamphetamine,69%
same,"cross-reactivity, CEDIA",[2]; [9],100%
same,IC50 (standard concentration which produces 50% B/B0),[3]; Conjugate 7 (hapten 7-HRP),0.017 µg/mL
same,% B/B0,"[3]; Conjugate 7 (hapten 7-HRP), standard concentration 1 ng/ml",83.4%
same,% B/B0,"[3]; Conjugate 7 (hapten 7-HRP), standard concentration 10 ng/ml",58%
same,% B/B0,"[3]; Conjugate 7 (hapten 7-HRP), standard concentration 50 ng/ml",34.7%
same,% B/B0,"[3]; Conjugate 7 (hapten 7-HRP), standard concentration 100 ng/ml",26%
same,% B/B0,"[3]; Conjugate 7 (hapten 7-HRP), standard concentration 250 ng/ml",15.9%
same,% B/B0,"[3]; Conjugate 7 (hapten 7-HRP), standard concentration 500 ng/ml",10.9%
same,% B/B0,"[3]; Conjugate 7 (hapten 7-HRP), standard concentration 1000 ng/ml",7.5%
same,IC50 (standard concentration which produces 50% B/B0),[3]; Conjugate 10 (hapten 10-HRP),0.0236 µg/mL
same,% B/B0,"[3]; Conjugate 10 (hapten 10-HRP), standard concentration 1 ng/ml",86.1%
same,% B/B0,"[3]; Conjugate 10 (hapten 10-HRP), standard concentration 10 ng/ml",59.3%
same,% B/B0,"[3]; Conjugate 10 (hapten 10-HRP), standard concentration 50 ng/ml",34.4%
same,% B/B0,"[3]; Conjugate 10 (hapten 10-HRP), standard concentration 100 ng/ml",28.3%
same,% B/B0,"[3]; Conjugate 10 (hapten 10-HRP), standard concentration 250 ng/ml",19.6%
same,% B/B0,"[3]; Conjugate 10 (hapten 10-HRP), standard concentration 500 ng/ml",14.4%
same,% B/B0,"[3]; Conjugate 10 (hapten 10-HRP), standard concentration 1000 ng/ml",8.97%
same,IC50,[3]; Trial 1,0.017 µg/mL
same,% CR (cross-reactivity = IC50MDMA/IC50CR x 100),[3]; Trial 1,100%
same,IC50,[3]; Trial 2,0.03 µg/mL
same,% CR (cross-reactivity = IC50MDMA/IC50CR x 100),[3]; Trial 2,100%
CN[C@@H](C)[C@H](O)c1ccccc1 [(−)-Ephedrine],IC50,[3]; Trial 1,>100 µg/mL
same,% CR (cross-reactivity = IC50MDMA/IC50CR x 100),[3]; Trial 1,<0.017%
C[C@H](N)Cc1ccccc1 [D-Amphetamine],"cross-reactivity, Cozart Amphetamine",[7],"1,428%"
same,"cross-reactivity, Cozart MDMA",[4],0.2–0.43%
same,"cross-reactivity, Cozart Methamphetamine and MDMA",[5],1.52%
same,"cross-reactivity, Emit",[1]; [9],917%
same,"cross-reactivity, Cozart Methamphetamine",[6],1%
same,"cross-reactivity, CEDIA",[2]; [9],146.5%
same,IC50,[3]; Trial 1,52.199 µg/mL
same,% CR (cross-reactivity = IC50MDMA/IC50CR x 100),[3]; Trial 1,0.03%
same,level of cross-reactivity of the MDMA assays (in words),[3],very low levels of cross-reactivity
"CC(N)Cc1ccc2c(c1)OCO2 (centres unmarked) [MDA, 3,4-methylenedioxyamphetamine]","cross-reactivity, Cozart Amphetamine",[7],208488–304164%
same,"cross-reactivity, Cozart MDMA",[4],0.3–0.74%
same,"cross-reactivity, Cozart Methamphetamine and MDMA",[5],0.87%
same,"cross-reactivity, Emit",[1]; [9],430.1%
same,"cross-reactivity, Cozart Methamphetamine",[6],0.36%
same,"cross-reactivity, CEDIA",[2]; [9],2.76%
same,IC50,[3]; Trial 1,0.3 µg/mL
same,% CR (cross-reactivity = IC50MDMA/IC50CR x 100),[3]; Trial 1,5.7%
same,level of cross-reactivity of the MDMA assays (in words),[3],lower levels of cross-reactivity
"CC(N)Cc1ccccc1 (racemic) [D,L-Amphetamine]","cross-reactivity, Emit",[1]; [9],545.6%
same,"cross-reactivity, CEDIA",[2]; [9],84.1%
"CCC(Cc1ccc2c(c1)OCO2)NC (centres unmarked) [MBDB, N-methyl-1-(3,4-methylenedioxyphenyl)-2-butamine]","cross-reactivity, Cozart MDMA EIA",[4],10.4–20%
same,"cross-reactivity, Cozart MDMA",[4],10.4–20^ %
same,"cross-reactivity, Cozart Methamphetamine and MDMA",[5],319–334.2%
same,"cross-reactivity, Cozart methamphetamine EIA",[6],150–200%
same,"cross-reactivity, Cozart Methamphetamine",[6],15–20%
(−)-Pseudoephedrine,IC50,[3]; Trial 1,>100 µg/mL
same,% CR (cross-reactivity = IC50MDMA/IC50CR x 100),[3]; Trial 1,<0.017%
